# Test results as given in ChEMBL document CHEMBL2074130, “Reversal of breast cancer resistance protein-mediated drug resistance by estrogen antagonists and agonists” (Mol Cancer Ther, 2003).
# Target: T1, Broad substrate specificity ATP-binding cassette transporter ABCG2 (Homo sapiens, UniProt Q9UNQ0)
# T1 sequence (Q9UNQ0 whole entry): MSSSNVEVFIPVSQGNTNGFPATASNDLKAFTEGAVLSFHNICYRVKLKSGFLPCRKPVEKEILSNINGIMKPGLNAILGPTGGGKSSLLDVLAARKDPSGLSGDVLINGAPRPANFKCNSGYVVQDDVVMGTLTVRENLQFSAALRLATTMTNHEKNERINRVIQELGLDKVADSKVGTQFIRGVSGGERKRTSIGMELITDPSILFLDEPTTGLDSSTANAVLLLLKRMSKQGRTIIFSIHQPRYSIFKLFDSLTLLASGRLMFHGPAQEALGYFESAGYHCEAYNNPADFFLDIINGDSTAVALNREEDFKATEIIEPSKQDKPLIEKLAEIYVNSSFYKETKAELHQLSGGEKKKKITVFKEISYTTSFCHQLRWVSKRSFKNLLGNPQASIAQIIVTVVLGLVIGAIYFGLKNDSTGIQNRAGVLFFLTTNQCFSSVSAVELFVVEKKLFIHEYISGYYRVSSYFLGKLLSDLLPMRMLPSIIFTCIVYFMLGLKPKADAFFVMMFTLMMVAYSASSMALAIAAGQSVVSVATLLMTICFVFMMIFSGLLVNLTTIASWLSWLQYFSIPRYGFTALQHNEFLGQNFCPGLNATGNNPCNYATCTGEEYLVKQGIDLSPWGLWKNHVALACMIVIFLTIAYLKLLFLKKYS
# Assay: TP_TRANSPORTER: inhibition of topotecan uptake in BCRP-expressing K562 cells
# Format: functional, cell-based
row,Activity,SMILES
1,inhibitor [],CC/C(=C(/c1ccc(OCCN(C)C)cc1)c1ccc(OCc2ccccc2)cc1)c1ccccc1
2,inhibitor [],CCC(=O)Oc1ccc(/C(CC)=C(\CC)c2ccc(OC(=O)CC)cc2)cc1 [DIETHYLSTILBESTROL DIPROPIONATE]
3,inhibitor [],CC/C(=C(/CC)c1ccc(O)cc1)c1ccc(O)cc1 [DIETHYLSTILBESTROL]
4,inhibitor [],C[C@]12CC[C@@H]3c4ccc(O)cc4CC[C@H]3[C@@H]1CCC2=O [ESTRONE]
5,inhibitor [],CC/C(=C(\c1ccc(O)cc1)c1ccc(OCCN(C)C)cc1)c1ccc(C(C)C)cc1 [MIPROXIFENE]

# More lines, now with the values behind:
row,SMILES,Activity
1,CC/C(=C(/c1ccc(OCCN(C)C)cc1)c1ccc(OCc2ccc([N+](=O)[O-])cc2)cc1)c1ccccc1,inhibitor []
2,CC/C(=C(\c1ccc(O)cc1)c1ccc(OCCNC)cc1)c1ccc(C(C)CO)cc1 (configuration not stated),inhibitor []
3,CC/C(=C(\c1ccc(O)cc1)c1ccc(OCCN(C)C)cc1)c1ccc(OC)cc1,inhibitor []
4,CC/C(=C(\c1ccc(O)cc1)c1ccc(OCCN(C)C)cc1)c1ccc(OCc2ccccc2)cc1,inhibitor []

# Target: T1, Broad substrate specificity ATP-binding cassette transporter ABCG2
# Assay: TP_TRANSPORTER: drug resistance in BCRP-expressing K562 cells
# Format: functional, cell-based
row,Activity,SMILES
1,substrate [],CCc1c2c(nc3ccc(O)cc13)-c1cc3c(c(=O)n1C2)COC(=O)[C@]3(O)CC [7-ETHYL-10-HYDROXYCAMPTOTHECIN]
2,substrate [],CC[C@@]1(O)C(=O)OCc2c1cc1n(c2=O)Cc2cc3c(CN(C)C)c(O)ccc3nc2-1 [TOPOTECAN]

row,SMILES,Activity
1,O=C1c2c(O)ccc(O)c2C(=O)c2c(NCCNCCO)ccc(NCCNCCO)c21 [MITOXANTRONE],substrate []
